Key:
[1] = tested on: anti-proliferative effects of radiation therapy; details: previously reported; cited from earlier work
OSCCs [2] = test: Cell count of viable cells (Trypan Blue, light microscope); type: cell-based, human; details: CDDP 50 μg/mL, 24 hours
From the text: The number of viable cells was counted under light microscope using Trypan Blue staining. Compiled data from three independent experiments performed as shown.
The number of viable cells was counted under light microscope using Trypan Blue staining (Sigma, MO, USA).

OSCCs [3] = test: Cell death assay (PI staining, flow cytometry); type: cell-based, human; details: CDDP 50 μg/mL, 24 hours
Method: No differences between untreated tumor cells and those treated with the DMSO vehicle alone in cell count or the amount of cell death in OSCCs and OSCSCs. […] Proportion of the live cells that had lost forward and side scatter were determined indicating decreased viability of the cells. In addition, the numbers of viable cells were determined after PI staining followed by flow cytometric analysis (FIG. 2A). OSCC tumor cells were treated as in FIG. 2A and the cells were analyzed by flow cytometry to determine the proportion of the live cells that had lost forward and side scatter indicating decreased viability of the cells (FIG. 2B) and the numbers of viable OSCC tumor cells were determined after PI staining followed by flow cytometric analysis (FIG. 2C). […] PI staining was used to determine the cell death by flow cytometry. One of four representative experiment is shown in (FIG. 2D). The compiled data of paired OSCCs and OSCSCs at the same concentration of WIN 55,212-2 treatment from four experiments is shown in (FIG. 2E). Four experiments were compiled and the % cell death of tumor cells by various WIN 55-212,2 concentrations (10, 25, 50 and 100 μM) were compared to the untreated control for both OSCC (FIG. 2F) and OSCSC (FIG. 2G). […] Non-linear regression was used to fit the curve of the % cell death induced by WIN 55-212,2 in various concentrations (10, 25, 50 and 100 μM) for both OSCC and OSCSC. […] The differences were clear within each independent experiment.
PI staining was used to determine the cell death by flow cytometry. Compiled data from four independent experiments performed is shown.

PL-12 tumor cells [4] = test: Cell death assay (PI staining, flow cytometry); type: cell-based, human; details: CDDP
OSCCs [5] = test: Microscopy of morphology and viability; type: cell-based, human; details: CDDP 50 μg/mL, 24 h
Method: (§1) Chemical structure of WIN 55,212-2 (FIG. 7A). […] OSCCs and OSCSCs were treated with CDDP (50 μg/mL) and different concentrations of WIN 55,212-2 for 24 hours before the microscopic images were taken. Scale bar=50 μm (FIG. 7B).

OSCSCs = test: Microscopy of morphology and viability; type: cell-based, human; details: CDDP 50 μg/mL, 24 h
Method: as §1

MP2 tumor cells = test: Microscopy of morphology and viability; type: cell-based, human; details: CDDP 50 μg/mL, 24 hours
Method: (§2) MP2 and PL-12 tumor cells were treated with CDDP (50 μg/mL) and different concentrations of WIN 55,212-2 for 24 hours before the microscopic images were taken. Scale bar=50 μm.

PL-12 tumor cells [6] = test: Microscopy of morphology and viability; type: cell-based, human; details: CDDP 50 μg/mL, 24 hours
Method: as §2

NK cells = test: NK cell cytotoxicity in humanized BLT mice (4-hr Chromium release assay); type: in vivo; details: hu-BLT mice, every 2 days for 3 weeks; WIN 55,212-2 2 mg/kg IP; IL-15 5 μg/mice IP; preliminary experiments
Method: Humanized BLT mice (hu-BLT; human-bone marrow/liver/thymus) were fed with, AJ2 (5×10^9 CFU/mice, every 2 days, Oral administration), WIN 55,212-2 (2 mg/kg, every 2 days, IP) and/or IL-15 (5 μg/mice, every 2 days, IP). After 3 weeks of treatment, immune cells were collected from peripheral blood, bone marrow and spleen, and CD3+ T cells were isolated from splenocytes with EasySep™ Human CD3 positive selection kit II (StemCell Tech.). PBMCs (0.5×10^6 cells) obtained from the peripheral blood were treated with IL-2 (1000 U/ml) and/or anti-CD16 antibody (BioLegend) (3 μg/ml) for 3 days, after which the cells were counted and different numbers of E:T ratios were used for the assessment of cytotoxicity using 4-hr Chromium release assay (FIG. 1A and FIG. 1B). The percentage specific cytotoxicity was calculated using the following formula (% cytotoxicity=(Experimental cpm/spontaneous cpm)/(total cpm−spontaneous cpm)) and the lytic unit 30 (Lu30/10^6) was calculated by using the inverse of the number of effector cells needed to lyse 30% of tumor target cells×100. Killing per % NK cells was determined by dividing the total Lytic unit 30 by the percentage of NK cells in each sample (FIG. 1A and FIG. 1B). […]

IFN-γ secretion = IFN-γ secretion of immune cells in humanized BLT mice (ELISA, ELISpot); type: in vivo; details: hu-BLT mice, every 2 days for 3 weeks; WIN 55,212-2 2 mg/kg IP; IL-15 5 μg/mice IP
Method: Humanized BLT mice (hu-BLT; human-bone marrow/liver/thymus) were fed with, AJ2 (5×10^9 CFU/mice, every 2 days, Oral administration), WIN 55,212-2 (2 mg/kg, every 2 days, IP) and/or IL-15 (5 μg/mice, every 2 days, IP). After 3 weeks of treatment, immune cells were collected from peripheral blood, bone marrow and spleen, and CD3+ T cells were isolated from splenocytes with EasySep™ Human CD3 positive selection kit II (StemCell Tech.). PBMCs (0.5×10^6 cells) obtained from the peripheral blood were treated with IL-2 (1000 U/ml) and/or anti-CD16 antibody (BioLegend) (3 μg/ml) for 3 days, after which the cells were counted and different numbers of E:T ratios were used for the assessment of cytotoxicity using 4-hr Chromium release assay (FIG. 1A and FIG. 1B). The percentage specific cytotoxicity was calculated using the following formula (% cytotoxicity=(Experimental cpm/spontaneous cpm)/(total cpm−spontaneous cpm)) and the lytic unit 30 (Lu30/10^6) was calculated by using the inverse of the number of effector cells needed to lyse 30% of tumor target cells×100. Killing per % NK cells was determined by dividing the total Lytic unit 30 by the percentage of NK cells in each sample (FIG. 1A and FIG. 1B). PBMCs (0.5×10^6 cells) obtained from the blood were treated with IL-2 (1000 U/ml) and/or anti-CD16 antibody (BioLegend) (3 μg/ml) for 24 hours, after which the supernatants were collected to measure IFN-g secretion using ELISA (BioLegend, San Diego) (FIG. 1C). ELISpot was used to determine the IFN-γ spots in PBMC (FIG. 1D), bone marrow (FIG. 1E), spleen (FIG. 1F) and CD3+ T cells (FIG. 1G).
Humanized BLT mice (hu-BLT; human-bone marrow/liver/thymus) were fed with, AJ2 (5×10^9 CFU/mice, every 2 days, Oral administration), WIN 55,212-2 (2 mg/kg, every 2 days, IP) and/or IL-15 (5 μg/mice, every 2 days, IP). After 3 weeks of treatment, immune cells were collected from peripheral blood, bone marrow and spleen, and CD3+ T cells were isolated from splenocytes with EasySep™ Human CD3 positive selection kit II (StemCell Tech.). PBMCs (0.5×10^6 cells) obtained from the peripheral blood were treated with IL-2 (1000 U/ml) and/or anti-CD16 antibody (BioLegend) (3 μg/ml) for 3 days, after which the cells were counted and different numbers of E:T ratios were used for the assessment of cytotoxicity using 4-hr Chromium release assay (FIG. 6A and FIG. 6B). The percentage specific cytotoxicity was calculated using the following formula (% cytotoxicity=(Experimental cpm/spontaneous cpm)/(total cpm−spontaneous cpm)) and the lytic unit 30 (Lu30/10^6) was calculated by using the inverse of the number of effector cells needed to lyse 30% of tumor target cells×100. Killing per % NK cells was determined by dividing the total Lytic unit 30 by the percentage of NK cells in each sample (FIG. 6A and FIG. 6B). PBMCs (0.5×10^6 cells) obtained from the blood were treated with IL-2 (1000 U/ml) and/or anti-CD16 antibody (BioLegend) (3 μg/ml) for 24 hours, after which the supernatants were collected to measure IFN-g secretion using ELISA (BioLegend, San Diego) (FIG. 6C). ELISpot was used to determine the IFN-γ spots in PBMC (FIG. 6D), bone marrow (FIG. 6E), spleen (FIG. 6F) and CD3+ T cells (FIG. 6G).

C=C(C)[C@@H]1CCC(C)=C[C@H]1c1c(O)cc(CCCCC)cc1O [CBD]
enhancement of anti-proliferative effects of radiation therapy [1]: failed to enhance

N.N.[Cl][Pt][Cl] [CDDP, cis-diamminedichloridoplatinum(II)]
inhibition of cell growth, OSCCs compared with OSCSCs (OSCCs [2]): inhibit cell growth of OSCCs more than those seen with OSCSCs
cell death, OSCCs compared with OSCSCs (OSCCs [3]): triggered more cell death in OSCCs when compared to OSCSCs
cell death, PL-12 compared with MP2 (PL-12 tumor cells [4]; compiled data): similar
cell death, PL-12 compared with MP2 (PL-12 tumor cells [4]; representative experiment): higher in PL-12
morphology and attachment (OSCCs [5]): loss of morphology, and the majority were detached from the plates
morphology and attachment (OSCSCs): the majority of these cells were still attached to the cell culture plate
morphology (MP2 tumor cells): affected both PL-12 and MP2 tumors morphologically
morphology (PL-12 tumor cells [6]): affected both PL-12 and MP2 tumors morphologically

CCCCCc1cc(O)c2c(c1)OC(C)(C)[C@@H]1CCC(C)=C[C@@H]21 [THC, tetrahydrocannabinol]
enhancement of anti-proliferative effects of radiation therapy [1]: failed to enhance

CCCCCCC(C)(C)c1cc(O)c2c(c1)OC(C)(C)C1CCC(=O)CC21 (stereo not shown) [nabilone]
enhancement of anti-proliferative effects of radiation therapy [1]: failed to enhance

IL-15: IL-15, given by intraperitoneal injection 5 μg/mice
cytotoxic function of NK cells in PBMC (NK cells): increased the NK cytotoxicity
IFN-γ secretion (ELISA, PBMCs) (IFN-γ secretion): increased
